Here are results for 23 compounds from ChEMBL document CHEMBL1136595, “Oximino-piperidino-piperidine-based CCR5 antagonists. Part 2: synthesis, SAR and biological evaluation of symmetrical heteroaryl carboxamides” (Bioorg Med Chem Lett, 2003).

In data set [1] the target is C-C chemokine receptor type 5 (Homo sapiens, UniProt P51681). Nature of the data set: Inhibition of [125I]RANTES binding to CCR5 receptor.
A short description of data set [2]: Area under curve after peroral administration at 10 mg/kg in rat for 0-6 h. The note with it: in vivo, po. More on the design: time < 6 hr, dose 10 mg/kg, route oral. The class given is ADME, organism-based.
For data set [3], the system named is Human immunodeficiency virus 1. Nature of the data set: Inhibition of HIV-1 (ADA) entry into U-87 (human glioblastoma) cells. The class given is functional, organism-based. Particulars: Human immunodeficiency virus 1, U-87 MG.

One may read the Ki as a measure of affinity in units of concentration, obtained from inhibition or displacement. In general, AUC refers to concentration integrated over time. Usually IC50 stands for the concentration that inhibits the measured activity by half. Read a low IC50 as inhibition by little substance.

The structures appear in SMILES notation.

C-C chemokine receptor type 5, sequence (P51681 whole entry): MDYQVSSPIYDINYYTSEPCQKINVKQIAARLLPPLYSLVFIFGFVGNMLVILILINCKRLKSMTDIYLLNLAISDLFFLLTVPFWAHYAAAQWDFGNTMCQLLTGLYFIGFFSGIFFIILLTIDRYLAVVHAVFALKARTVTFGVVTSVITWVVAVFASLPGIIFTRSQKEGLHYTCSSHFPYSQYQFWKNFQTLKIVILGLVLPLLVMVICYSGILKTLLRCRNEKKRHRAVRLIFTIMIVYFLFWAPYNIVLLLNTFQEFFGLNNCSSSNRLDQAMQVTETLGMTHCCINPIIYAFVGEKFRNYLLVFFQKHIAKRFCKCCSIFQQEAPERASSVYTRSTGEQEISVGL

In data set [1], `CCO/N=C(/c1ccc(Br)cc1)C1CCN(C2(C)CCN(C(=O)c3c(C)nc(C4CC4)nc3C)CC2)CC1` came in with a Ki of 25 nM.

In data set [1], `CCO/N=C(/c1ccc(Br)cc1)C1CCN(C2(C)CCN(C(=O)c3c(C)nc(C(C)C)nc3C)CC2)CC1` returned an inhibition constant Ki of 43 nM.

Compound `CCO/N=C(/c1ccc(Br)cc1)C1CCN(C2(C)CCN(C(=O)c3c(C)nc(NC(C)=O)nc3C)CC2)CC1` returned an inhibition constant Ki in data set [1] of 60 nM.

`CCCO/N=C(/c1ccc(Br)cc1)C1CCN(C2(C)CCN(C(=O)c3c(C)ncnc3C)CC2)CC1`: the area under the curve (AUC) at 6 h in data set [2] is 1600 ng·h/mL. For the same compound, the inhibitory constant (Ki) in data set [1] was determined as 2 nM. Moreover, inhibition in data set [3] was half-maximal at 0.89 nM (IC50).

With `CCO/N=C(/c1ccc(Br)cc1)C1CCN(C2(C)CCN(C(=O)c3c(C)nc(SC)nc3C)CC2)CC1`, the exposure (AUC) at 6 h in data set [2] was determined as 400 ng·h/mL. Also, the affinity in data set [1] corresponds to a Ki of 1.3 nM.

`CCO/N=C(/c1ccc(Br)cc1)C1CCN(C2(C)CCN(C(=O)c3c(C)nc(C(F)(F)F)nc3C)CC2)CC1`: the AUC at 6 h in data set [2] was determined as 2000 ng·h/mL. This compound also gave a Ki in data set [1] of 3.2 nM. Besides, the midpoint of inhibition in data set [3], the IC50, lay at 0.26 nM.

Take `Cc1ncnc(C)c1C(=O)N1CCC(C)(N2CCC(/C(=N\OC(C)C)c3ccc(Br)cc3)CC2)CC1`: in data set [2], the AUC at 6 h turned out to be 2400 ng·h/mL. Besides, the Ki in data set [1] was determined as 3.3 nM. Besides, in data set [3], it took 0.28 nM to reach half-maximal inhibition (IC50).

For `Cc1ncnc(C)c1C(=O)N1CCC(C)(N2CCC(/C(=N\OCC(F)(F)F)c3ccc(Br)cc3)CC2)CC1`, the exposure (AUC) at 6 h in data set [2] came out at 6900 ng·h/mL. In data set [1], this compound had a Ki of 14 nM. In data set [3], this compound yielded an IC50 of 3.8 nM.

For the compound `CCO/N=C(/c1ccc(Br)cc1)C1CCN(C2(C)CCN(C(=O)c3c(C)nc(N)nc3C)CC2)CC1`, in data set [2], the exposure (AUC) at 6 h was found to be 3100 ng·h/mL. Moreover, affinity in data set [1] was put at a Ki of 5.7 nM. Moreover, half-maximal inhibition in data set [3] (IC50) required 0.35 nM.

For `CO/N=C(\c1ccc(Br)cc1)C1CCN(C2(C)CCN(C(=O)c3c(C)ncnc3C)CC2)CC1`, the AUC at 6 h in data set [2] is 4100 ng·h/mL. Besides, the Ki in data set [1] worked out at 4.7 nM. The same compound gave an IC50 in data set [3] of 1.83 nM.

`CCO/N=C(\c1ccc(Br)cc1)C1CCN(C2(C)CCN(C(=O)c3c(C)c[n+]([O-])cc3C)CC2)CC1` gave an AUC at 6 h in data set [2] of 1600 ng·h/mL. The compound also came in with an inhibition constant (Ki) in data set [1] of 8.8 nM. Moreover, the IC50 in data set [3] is 0.4 nM.

In turn, `CCO/N=C(\c1ccc(Br)cc1)C1CCN(C2(C)CCN(C(=O)c3c(Br)c[n+]([O-])cc3Br)CC2)CC1` came in with an exposure (AUC) at 6 h in data set [2] of 4400 ng·h/mL. Further, the affinity in data set [1] corresponds to a Ki of 0.7 nM. For the same compound, in data set [3], the half-inhibitory concentration (IC50) was 1.24 nM.

In data set [2], `CCO/N=C(\c1ccc(Br)cc1)C1CCN(C2(C)CCN(C(=O)c3c(C)cncc3C)CC2)CC1` gave an area under the curve (AUC) at 6 h of 1300 ng·h/mL. The compound further gave a Ki in data set [1] of 2.3 nM.

As for `CCO/N=C(\c1ccc(Br)cc1)C1CCN(C2(C)CCN(C(=O)c3c(Cl)c[n+]([O-])cc3Cl)CC2)CC1`, the exposure (AUC) at 6 h in data set [2] turned out to be 3900 ng·h/mL. In data set [1], this compound yielded an inhibition constant Ki of 1.2 nM. Further, in data set [3], the half-maximal inhibitory concentration (IC50) worked out at 0.15 nM.

Consider `CCO/N=C(/c1ccc(Br)cc1)C1CCN(C2(C)CCN(C(=O)c3c(C)nc(C)nc3C)CC2)CC1`, for which the area under the curve (AUC) at 6 h in data set [2] was 2700 ng·h/mL. In data set [1], this compound yielded a Ki of 2.1 nM. For the same compound, in data set [3], the 50% inhibitory concentration (IC50) was determined as 0.93 nM.

On to `Cc1ncnc(C)c1C(=O)N1CCC(C)(N2CCC(/C(=N\OCC(C)C)c3ccc(Br)cc3)CC2)CC1`, for which, in data set [2], the exposure (AUC) at 6 h was 600 ng·h/mL. Further, in data set [1], the Ki is 8.1 nM. Also, in data set [3], half-maximal inhibition (IC50) was put at 1.17 nM.

As for `CCO/N=C(/c1ccc(Br)cc1)C1CCN(C2(C)CCN(C(=O)c3c(C)nc(NS(C)(=O)=O)nc3C)CC2)CC1`, in data set [1], the inhibitory constant (Ki) stood at 315 nM.

`CCO/N=C(/c1ccc(Br)cc1)C1CCN(C2(C)CCN(C(=O)c3c(C)nc(OC)nc3C)CC2)CC1`: the AUC at 6 h in data set [2] turned out to be 1800 ng·h/mL. The Ki in data set [1] worked out at 5.3 nM. Also, in data set [3], the IC50 was 0.13 nM.

In data set [2], `Cc1ncnc(C)c1C(=O)N1CCC(C)(N2CCC(/C(=N\OCC3CC3)c3ccc(Br)cc3)CC2)CC1` returned an AUC at 6 h of 3700 ng·h/mL. In data set [1], the Ki was 11 nM.

`CCO/N=C(\c1ccc(Br)cc1)C1CCN(C2(C)CCN(C(=O)c3c(Br)cncc3Br)CC2)CC1` came in with an AUC at 6 h in data set [2] of 500 ng·h/mL. In data set [3], this compound yielded an IC50 of 1.04 nM.

`CCO/N=C(\c1ccc(Br)cc1)C1CCN(C2(C)CCN(C(=O)c3c(Cl)cncc3Cl)CC2)CC1` returned an exposure (AUC) at 6 h in data set [2] of 500 ng·h/mL. This compound showed a 50% inhibitory concentration (IC50) in data set [3] of 0.69 nM.

As to `CCO/N=C(\c1ccc(Br)cc1)C1CCN(C2(C)CCN(C(=O)c3c(C)ncnc3C)CC2)CC1`, the AUC at 6 h in data set [2] turned out to be 3100 ng·h/mL. This compound registered an inhibition constant Ki in data set [1] of 2.2 nM. The same compound displayed a half-inhibitory concentration (IC50) in data set [3] of 0.36 nM.

On to `COC[C@@H](c1ccc(C(F)(F)F)cc1)N1CCN(C2(C)CCN(C(=O)c3c(C)ncnc3C)CC2)C[C@@H]1C` [VICRIVIROC], for which, in data set [2], the area under the curve (AUC) at 6 h worked out at 6500 ng·h/mL. Further, half-maximal inhibition in data set [3] (IC50) required 0.6 nM.
